Test system: 521955-158-R2-J5-PDC complex spheroids, viability
Assay: Anticancer human tumor 521955-158-R2-J5-PDC patient-derived pancreatic carcinoma cell line growth inhibition [RAS]
Conditions: for IC50: curve of first compound; for viability, T/C: stronger effect = lower value
Outline: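 Multi-cell-type spheroids: tumor cells plus HUVEC endothelial cells and mesenchymal stem cells. RAS-pathway inhibitors were combined with targeted agents, each dosed in half-log steps down from clinical Cmax, or from 10 microM when Cmax was unknown.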

[1] = second compound 0.000949 µM, first compound 0.00316 µM
[2] = second compound 0.000949 µM, first compound 0.01 µM
[3] = second compound 0.000949 µM, first compound 0.0316 µM
[4] = second compound 0.000949 µM, first compound 0.1 µM
[5] = second compound 0.000949 µM, first compound 0.316 µM
[6] = second compound 0.000949 µM, first compound 1 µM
[7] = second compound 0.003 µM, first compound 0.00316 µM
[8] = second compound 0.003 µM, first compound 0.01 µM
[9] = second compound 0.003 µM, first compound 0.0316 µM
[10] = second compound 0.003 µM, first compound 0.1 µM
[11] = second compound 0.003 µM, first compound 0.316 µM
[12] = second compound 0.003 µM, first compound 1 µM
[13] = second compound 0.00949 µM, first compound 0.00316 µM
[14] = second compound 0.00949 µM, first compound 0.01 µM
[15] = second compound 0.00949 µM, first compound 0.0316 µM
[16] = second compound 0.00949 µM, first compound 0.1 µM
[17] = second compound 0.00949 µM, first compound 0.316 µM
[18] = second compound 0.00949 µM, first compound 1 µM
[19] = second compound 0.03 µM, first compound 0.00316 µM
[20] = second compound 0.03 µM, first compound 0.01 µM
[21] = second compound 0.03 µM, first compound 0.0316 µM
[22] = second compound 0.03 µM, first compound 0.1 µM
[23] = second compound 0.03 µM, first compound 0.316 µM
[24] = second compound 0.03 µM, first compound 1 µM
[25] = second compound 0.0949 µM, first compound 0.00316 µM
[26] = second compound 0.0949 µM, first compound 0.01 µM
[27] = second compound 0.0949 µM, first compound 0.0316 µM
[28] = second compound 0.0949 µM, first compound 0.1 µM
[29] = second compound 0.0949 µM, first compound 0.316 µM
[30] = second compound 0.0949 µM, first compound 1 µM
[31] = second compound 0.3 µM, first compound 0.00316 µM
[32] = second compound 0.3 µM, first compound 0.01 µM
[33] = second compound 0.3 µM, first compound 0.0316 µM
[34] = second compound 0.3 µM, first compound 0.1 µM
[35] = second compound 0.3 µM, first compound 0.316 µM
[36] = second compound 0.3 µM, first compound 1 µM
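Also: compound exposure lasted seven days before the viability read.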
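For viability, T/C in this document: spheroids also contain HUVEC endothelial cells and mesenchymal stem cells as stroma.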

Structure (SMILES): Nc1ccn(C2OC(CO)C(O)C2(F)F)c(=O)n1 (stereo unspecified) + CCn1c(-c2cc(N3CCN(C)CC3)cnc2C(C)OC)c2c3cc(ccc31)-c1csc(n1)CC(NC(=O)C1CC1C)C(=O)N1CCCC(N1)C(=O)OCC(C)(C)C2
- IC50 (second compound 0.000949 µM): < 3.16 nM
- IC50 (second compound 0.003 µM): < 3.16 nM
- IC50 (second compound 0.00949 µM): < 3.16 nM
- IC50 (second compound 0.03 µM): < 3.16 nM
- IC50 (second compound 0.0949 µM): < 3.16 nM
- IC50 (second compound 0.3 µM): < 3.16 nM
- viability, T/C [1]: 35.3%
- viability, T/C [2]: 29%
- viability, T/C [3]: 30.2%
- viability, T/C [4]: 21%
- viability, T/C [5]: 22.9%
- viability, T/C [6]: 12%
- viability, T/C [7]: 39%
- viability, T/C [8]: 33.4%
- viability, T/C [9]: 36%
- viability, T/C [10]: 28%
- viability, T/C [11]: 20.5%
- viability, T/C [12]: 17.2%
- viability, T/C [13]: 32.2%
- viability, T/C [14]: 28.8%
- viability, T/C [15]: 29.9%
- viability, T/C [16]: 21.4%
- viability, T/C [17]: 19.8%
- viability, T/C [18]: 20.6%
- viability, T/C [19]: 22.5%
- viability, T/C [20]: 20.6%
- viability, T/C [21]: 18.3%
- viability, T/C [22]: 19.4%
- viability, T/C [23]: 13.7%
- viability, T/C [24]: 12.7%
- viability, T/C [25]: 10.2%
- viability, T/C [26]: 11.2%
- viability, T/C [27]: 13.3%
- viability, T/C [28]: 12.4%
- viability, T/C [29]: 9.85%
- viability, T/C [30]: 7.8%
- viability, T/C [31]: 13.4%
- viability, T/C [32]: 9.3%
- viability, T/C [33]: 11.2%
- viability, T/C [34]: 11.1%
- viability, T/C [35]: 9.17%
- viability, T/C [36]: 11.8%

Structure (SMILES): CCN1CCN(Cc2ccc(Nc3ncc(F)c(-c4cc(F)c5nc(C)n(C(C)C)c5c4)n3)nc2)CC1 + CCn1c(-c2cc(N3CCN(C)CC3)cnc2C(C)OC)c2c3cc(ccc31)-c1csc(n1)CC(NC(=O)C1CC1C)C(=O)N1CCCC(N1)C(=O)OCC(C)(C)C2
- IC50 (second compound 0.000949 µM): < 3.16 nM
- IC50 (second compound 0.003 µM): < 3.16 nM
- IC50 (second compound 0.00949 µM): < 3.16 nM
- IC50 (second compound 0.03 µM): < 3.16 nM
- IC50 (second compound 0.0949 µM): < 3.16 nM
- IC50 (second compound 0.3 µM): < 3.16 nM
- viability, T/C [1]: 43.2%
- viability, T/C [2]: 39.4%
- viability, T/C [3]: 39.4%
- viability, T/C [4]: 31.6%
- viability, T/C [5]: 43.6%
- viability, T/C [6]: 47.6%
- viability, T/C [7]: 39.4%
- viability, T/C [8]: 40.9%
- viability, T/C [9]: 41.2%
- viability, T/C [10]: 39.2%
- viability, T/C [11]: 37.9%
- viability, T/C [12]: 36.6%
- viability, T/C [13]: 35.8%
- viability, T/C [14]: 30.1%
- viability, T/C [15]: 28.4%
- viability, T/C [16]: 22.8%
- viability, T/C [17]: 27.5%
- viability, T/C [18]: 25.9%
- viability, T/C [19]: 23%
- viability, T/C [20]: 18.4%
- viability, T/C [21]: 17%
- viability, T/C [22]: 16.8%
- viability, T/C [23]: 16.4%
- viability, T/C [24]: 16.5%
- viability, T/C [25]: 12.1%
- viability, T/C [26]: 11%
- viability, T/C [27]: 11.4%
- viability, T/C [28]: 8.7%
- viability, T/C [29]: 13.6%
- viability, T/C [30]: 14.8%
- viability, T/C [31]: 9.79%
- viability, T/C [32]: 8.72%
- viability, T/C [33]: 10.5%
- viability, T/C [34]: 10%
- viability, T/C [35]: 13.9%
- viability, T/C [36]: 13.1%

Structure (SMILES): CC(C)n1nc(-c2ccc3oc(N)nc3c2)c2c(N)ncnc21 + CCn1c(-c2cc(N3CCN(C)CC3)cnc2C(C)OC)c2c3cc(ccc31)-c1csc(n1)CC(NC(=O)C1CC1C)C(=O)N1CCCC(N1)C(=O)OCC(C)(C)C2
- IC50 (second compound 0.000949 µM): < 0.316 nM
- IC50 (second compound 0.003 µM): < 0.316 nM
- IC50 (second compound 0.00949 µM): < 0.316 nM
- IC50 (second compound 0.03 µM): < 0.316 nM
- IC50 (second compound 0.0949 µM): < 0.316 nM
- IC50 (second compound 0.3 µM): < 0.316 nM
- viability, T/C (second compound 0.000949 µM, first compound 0.000316 µM): 38.5%
- viability, T/C (second compound 0.000949 µM, first compound 0.001 µM): 40.2%
- viability, T/C [1]: 37.6%
- viability, T/C [2]: 39.8%
- viability, T/C [3]: 22.7%
- viability, T/C [4]: 21.2%
- viability, T/C (second compound 0.003 µM, first compound 0.000316 µM): 34.6%
- viability, T/C (second compound 0.003 µM, first compound 0.001 µM): 38.8%
- viability, T/C [7]: 28.7%
- viability, T/C [8]: 22.6%
- viability, T/C [9]: 11.2%
- viability, T/C [10]: 7.9%
- viability, T/C (second compound 0.00949 µM, first compound 0.000316 µM): 31.3%
- viability, T/C (second compound 0.00949 µM, first compound 0.001 µM): 30.2%
- viability, T/C [13]: 34.9%
- viability, T/C [14]: 21.4%
- viability, T/C [15]: 14.2%
- viability, T/C [16]: 6.83%
- viability, T/C (second compound 0.03 µM, first compound 0.000316 µM): 25.3%
- viability, T/C (second compound 0.03 µM, first compound 0.001 µM): 22%
- viability, T/C [19]: 20.4%
- viability, T/C [20]: 17.9%
- viability, T/C [21]: 11.7%
- viability, T/C [22]: 6.04%
- viability, T/C (second compound 0.0949 µM, first compound 0.000316 µM): 11.8%
- viability, T/C (second compound 0.0949 µM, first compound 0.001 µM): 11%
- viability, T/C [25]: 15.8%
- viability, T/C [26]: 12.2%
- viability, T/C [27]: 10%
- viability, T/C [28]: 3.64%
- viability, T/C (second compound 0.3 µM, first compound 0.000316 µM): 9.8%
- viability, T/C (second compound 0.3 µM, first compound 0.001 µM): 10.4%
- viability, T/C [31]: 7.93%
- viability, T/C [32]: 7.87%
- viability, T/C [33]: 6.76%
- viability, T/C [34]: 3.75%

— PubChem BioAssay AID2060900 (Molecular Pharmacology Branch, DTP, NCI, 2025)
